13 compounds from patent publication US12668591B2, “1,2,4-oxadiazole derivatives as histone deacetylase 6 inhibitors” (Oryzon Genomics, S.A., priority 2017, dated 2026) can be followed below.

The target of assay [1] is T1, HDAC6 (Homo sapiens, UniProt Q9UBN7).
T1 sequence (Q9UBN7 1-1215): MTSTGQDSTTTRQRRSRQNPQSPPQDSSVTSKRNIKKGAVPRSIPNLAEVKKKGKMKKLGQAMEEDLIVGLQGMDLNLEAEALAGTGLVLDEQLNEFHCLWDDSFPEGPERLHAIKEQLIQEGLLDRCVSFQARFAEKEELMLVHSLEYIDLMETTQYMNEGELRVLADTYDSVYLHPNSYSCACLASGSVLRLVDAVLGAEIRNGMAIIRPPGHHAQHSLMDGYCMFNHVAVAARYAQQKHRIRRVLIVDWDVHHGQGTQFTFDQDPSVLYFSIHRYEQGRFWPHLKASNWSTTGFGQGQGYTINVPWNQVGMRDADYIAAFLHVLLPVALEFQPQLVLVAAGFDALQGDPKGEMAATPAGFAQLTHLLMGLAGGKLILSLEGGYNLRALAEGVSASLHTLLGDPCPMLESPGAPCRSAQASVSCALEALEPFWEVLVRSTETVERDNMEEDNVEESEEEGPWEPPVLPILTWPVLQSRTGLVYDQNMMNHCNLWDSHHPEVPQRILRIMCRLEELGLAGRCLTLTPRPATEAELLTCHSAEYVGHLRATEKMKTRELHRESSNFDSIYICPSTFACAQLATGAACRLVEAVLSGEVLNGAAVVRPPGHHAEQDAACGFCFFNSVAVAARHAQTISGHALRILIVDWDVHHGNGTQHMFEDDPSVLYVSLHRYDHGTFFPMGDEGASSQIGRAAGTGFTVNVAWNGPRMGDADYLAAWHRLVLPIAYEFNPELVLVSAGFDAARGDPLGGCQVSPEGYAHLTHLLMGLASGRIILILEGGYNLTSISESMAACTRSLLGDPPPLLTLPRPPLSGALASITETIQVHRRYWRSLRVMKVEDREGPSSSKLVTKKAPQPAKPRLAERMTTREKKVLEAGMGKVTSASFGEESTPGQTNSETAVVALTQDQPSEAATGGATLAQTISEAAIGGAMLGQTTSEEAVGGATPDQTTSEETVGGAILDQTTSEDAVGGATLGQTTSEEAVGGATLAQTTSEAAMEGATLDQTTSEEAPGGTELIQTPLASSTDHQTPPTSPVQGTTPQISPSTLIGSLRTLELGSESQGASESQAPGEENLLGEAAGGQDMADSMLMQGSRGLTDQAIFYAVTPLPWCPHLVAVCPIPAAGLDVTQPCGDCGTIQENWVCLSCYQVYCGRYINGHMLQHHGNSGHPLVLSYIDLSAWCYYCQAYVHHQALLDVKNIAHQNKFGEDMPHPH
Description: HDAC6 enzyme inhibition assay (fluorimetric). It is filed as biochemical. As to conditions: 1 μM compound; 3 h pre-incubation; recombinant full length HDAC6; read-out: HDAC6 % inh @ 1 μM. As to the method:
(§1) HDAC6 and HDAC2 Enzyme Inhibition Assay
(§2) A fluorimetric assay was used for testing the activity of compounds of the invention against HDAC6 and HDAC2.
(§3) The compounds were dissolved in DMSO. Serial dilutions were prepared in DMSO and then diluted 1:10 in HDAC assay buffer (Tris-buffered solution, BPS Bioscience Inc. #50031). 5 μl of the compound dilution was added to a 50 μl reaction so that the final concentration of DMSO was 1%.
(§4) The compounds were pre-incubated in duplicate at RT for 3 hours in a mixture containing HDAC assay buffer, 5 μg BSA and recombinant HDAC enzyme (see table above). The enzymatic reactions were initiated by the addition of a fluorogenic, acetylated peptide substrate based on a histone protein (BPS Bioscience Inc. #50037) to a final concentration of 10 μM. The enzymatic reaction proceeded for 30 minutes at 37° C. Then, 50 μl of 2× HDAC Developer, which contains peptidase activity and Trichostatin A (BPS Bioscience Inc. #50030) was added and the plate was incubated at RT for an additional 15 minutes. Fluorescence intensity was measured at an excitation of 360 nm and an emission of 460 nm using a Tecan Infinite M1000 microplate reader.
(§5) Trichostatin A (TSA, Selleckchem #S1045) was used as reference inhibitor.
(§6) The fluorescent intensity data were analyzed using the computer software Graphpad Prism (GraphPad Software, San Diego, CA). 100% activity was defined as the fluorescent intensity (Ft) in the absence of the compound. 0% activity was defined as the fluorescent intensity (Fb) in the absence of the enzyme. The percent activity in the presence of each compound was calculated according to the following equation: % activity=(F−Fb)/(Ft−Fb), where F=the fluorescent intensity in the presence of the compound.

The target of a further assay is T2, HDAC2 (Homo sapiens, UniProt Q92769).
T2 construct: (full length with C-terminal His-tag); His (C); purchased BPS Bioscience Inc. 50002
Description: HDAC2 enzyme inhibition assay (fluorimetric). It is filed as biochemical. As to conditions: 1 μM compound; 3 h pre-incubation; recombinant full length HDAC2; read-out: HDAC2 % inh @ 1 μM. Here is the method: as §1, §2, §3, §4, §5, §6

In assay [2] the target is T1, HDAC6. Description: In vitro cell-based assay: acetylation levels of Alpha-Tubulin by Western Blot in MOLP8 cells. More on the design: endogenous in cells; host or cells: MOLP8. As to conditions: 18 h, acetyl-alpha-tubulin relative band intensity, ACY-1215 1 μM = 100%. Summed up: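 MOLP8 cells treated with compounds at 5 and 1 μM for 18 h at 37° C.; acetyl-alpha-tubulin measured by Western blot of RIPA extracts (7 μg protein). Bands normalized to total protein or beta-actin, expressed relative to ACY-1215 1 μM (100%), then classed.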

Structures are written as SMILES.

T2 sequence (Q92769 whole entry): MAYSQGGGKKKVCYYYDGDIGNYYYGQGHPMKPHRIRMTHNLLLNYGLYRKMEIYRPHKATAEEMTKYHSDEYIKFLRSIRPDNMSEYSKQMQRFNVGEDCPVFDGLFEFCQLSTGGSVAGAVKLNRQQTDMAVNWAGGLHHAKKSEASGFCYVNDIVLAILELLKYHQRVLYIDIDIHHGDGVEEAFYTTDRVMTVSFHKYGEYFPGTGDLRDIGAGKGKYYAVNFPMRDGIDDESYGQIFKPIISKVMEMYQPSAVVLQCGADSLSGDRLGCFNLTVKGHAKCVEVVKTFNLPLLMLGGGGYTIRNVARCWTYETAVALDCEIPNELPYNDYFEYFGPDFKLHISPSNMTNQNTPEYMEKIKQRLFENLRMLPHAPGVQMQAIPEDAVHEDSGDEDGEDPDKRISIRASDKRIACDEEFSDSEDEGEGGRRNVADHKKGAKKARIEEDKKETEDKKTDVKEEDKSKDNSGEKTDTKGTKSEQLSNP

For `FC1(F)CCN(CCCOc2ccc(-c3cc(-c4noc(C(F)(F)F)n4)ccn3)nc2)CC1` [Example 1f, 3-(5′-(3-(4,4-Difluoropiperidin-1-yl)propoxy)-[2,2′-bipyridin]-4-yl)-5-(trifluoromethyl)-1,2,4-oxadiazole], the inhibition at 1 µM at HDAC6 [1] worked out at 71%. Further, the inhibition at 1 µM on HDAC2 was found to be 16%. At HDAC6 [2], the “Cellular activity @1 uM” value is listed as “− (<50)” and the “Cellular activity @5 uM” value is listed as “++ (150-300)”.
With `O=C(CN1CCC(F)(F)CC1)Nc1ccnc(-c2cc(-c3noc(C(F)(F)F)n3)ccn2)c1` [Example 1y, 2-(4,4-Difluoropiperidin-1-yl)-N-(4′-(5-(trifluoromethyl)-1,2,4-oxadiazol-3-yl)-[2,2′-bipyridin]-4-yl)acetamide], the inhibition at 1 µM at HDAC6 [1] was determined as 92%; on HDAC2, 27%. Moreover, at HDAC6 [2], the “Cellular activity @1 uM” value is “+ (50-150)”. Besides, the “Cellular activity @5 uM” value on HDAC6 [2] is on record as “++ (150-300)”.
Take `FC(F)(F)c1nc(-c2ccnc(-c3cc4c(ccn4Cc4ccncc4)cn3)c2)no1` [Example 1al, 3-(2-(1-(Pyridin-4-ylmethyl)-1H-pyrrolo[3,2-c]pyridin-6-yl)pyridin-4-yl)-5-(trifluoromethyl)-1,2,4-oxadiazole]: the inhibition at 1 µM on HDAC6 [1] was found to be 92%. Besides, the inhibition at 1 µM on HDAC2 is 31%. In addition, at HDAC6 [2], the “Cellular activity @1 uM” value is given as “++ (150-300)” and the “Cellular activity @5 uM” value is reported as “++ (150-300)”.
With `O=C(CC1CCC1)Nc1ccnc(-c2cc(-c3noc(C(F)(F)F)n3)ccn2)c1` [Example 1ae, 2-Cyclobutyl-N-(4′-(5-(trifluoromethyl)-1,2,4-oxadiazol-3-yl)-[2,2′-bipyridin]-4-yl)acetamide], at HDAC6 [1], the inhibition at 1 µM was found to be 85%. Besides, the inhibition at 1 µM at HDAC2 is 5%. At HDAC6 [2], the “Cellular activity @1 uM” value is “+ (50-150)” and the “Cellular activity @5 uM” value is “+ (50-150)”.
For `CCCn1cc(CN2CCCCC2)c2cc(-c3cc(-c4noc(C(F)(F)F)n4)ccn3)ncc21` [Example 1g, 3-(2-(3-(Piperidin-1-ylmethyl)-1-propyl-1H-pyrrolo[2,3-c]pyridin-5-yl)pyridin-4-yl)-5-(trifluoromethyl)-1,2,4-oxadiazole], the inhibition at 1 µM on HDAC6 [1] came out at 96%; on HDAC2, 38%. The “Cellular activity @1 uM” value at HDAC6 [2] was “+ (50-150)”. At HDAC6 [2], the “Cellular activity @5 uM” value is “+++ (>300)”.
In the same order, the values of `Cn1cc(-c2cn[nH]c2)c2cc(-c3cc(-c4noc(C(F)(F)F)n4)ccn3)ncc21` [Example 1ap, 3-(2-(1-Methyl-3-(1H-pyrazol-4-yl)-1H-pyrrolo[2,3-c]pyridin-5-yl)pyridin-4-yl)-5-(trifluoromethyl)-1,2,4-oxadiazole] are 86%, 6%, “+ (50-150)” and “++ (150-300)”.
The like results for `CN1CCC(C(=O)Nc2ccc(-c3cc(-c4noc(C(F)(F)F)n4)ccn3)nc2)CC1` [Example 1ac, 1-Methyl-N-(4′-(5-(trifluoromethyl)-1,2,4-oxadiazol-3-yl)-[2,2′-bipyridin]-5-yl)piperidine-4-carboxamide] were, in that order, 78%, 18%, “+ (50-150)” and “++ (150-300)”.
On to `FC1(F)CCN(CCNc2ccnc(-c3cc(-c4noc(C(F)(F)F)n4)ccn3)c2)CC1` [Example 1z, N-(2-(4,4-Difluoropiperidin-1-yl)ethyl)-4′-(5-(trifluoromethyl)-1,2,4-oxadiazol-3-yl)-[2,2′-bipyridin]-4-amine], for which the inhibition at 1 µM on HDAC6 [1] amounted to 97%; on HDAC2 it was 46%. In addition, on HDAC6 [2], the “Cellular activity @1 uM” value was “+ (50-150)”. For the same compound, on HDAC6 [2], the “Cellular activity @5 uM” value was “++ (150-300)”.
As to `FC(F)(F)c1nc(-c2ccnc(-c3cc4c(ccn4Cc4ccccn4)cn3)c2)no1` [Example 1aw, 3-(2-(1-(Pyridin-2-ylmethyl)-1H-pyrrolo[3,2-c]pyridin-6-yl)pyridin-4-yl)-5-(trifluoromethyl)-1,2,4-oxadiazole], the inhibition at 1 µM at HDAC6 [1] worked out at 81%; at HDAC2, 15%. The “Cellular activity @1 uM” value at HDAC6 [2] was “+ (50-150)”. Besides, on HDAC6 [2], the “Cellular activity @5 uM” value is on record as “++ (150-300)”.
Take `FC(F)(F)c1nc(-c2ccnc(-c3cc4c(ccn4C4CCOCC4)cn3)c2)no1` [Example 1o, 3-(2-(1-(Tetrahydro-2H-pyran-4-yl)-1H-pyrrolo[3,2-c]pyridin-6-yl)pyridin-4-yl)-5-(trifluoromethyl)-1,2,4-oxadiazole]: the inhibition at 1 µM at HDAC6 [1] was 97%. Besides, on HDAC2, the inhibition at 1 µM was found to be 23%. On HDAC6 [2], the “Cellular activity @1 uM” value was “++ (150-300)” and the “Cellular activity @5 uM” value was “+++ (>300)”.
The like results for `CCCCn1cc(C2=CCN(C)CC2)c2cc(-c3cc(-c4noc(C(F)(F)F)n4)ccn3)ncc21` [Example 1aq, 3-(2-(1-Butyl-3-(1-methyl-1,2,3,6-tetrahydropyridin-4-yl)-1H-pyrrolo[2,3-c]pyridin-5-yl)pyridin-4-yl)-5-(trifluoromethyl)-1,2,4-oxadiazole] were, in that order, 89%, 2%, “++ (150-300)” and “++ (150-300)”.
The like results for `O=C(Cc1ccccc1)Nc1ccc(-c2cc(-c3noc(C(F)(F)F)n3)ccn2)nc1` [Example 1q, 2-Phenyl-N-(4′-(5-(trifluoromethyl)-1,2,4-oxadiazol-3-yl)-[2,2′-bipyridin]-5-yl)acetamide] were, in that order, 73%, 11%, “+ (50-150)” and “++ (150-300)”.
As to `CN(C)C(=O)c1cc2cc(-c3cc(-c4noc(C(F)(F)F)n4)ccn3)ncc2n1C` [Example 1u, N,N,1-Trimethyl-5-(4-(5-(trifluoromethyl)-1,2,4-oxadiazol-3-yl)pyridin-2-yl)-1H-pyrrolo[2,3-c]pyridine-2-carboxamide], the inhibition at 1 µM at HDAC6 [1] was 98%; on HDAC2, 19%. The “Cellular activity @1 uM” value on HDAC6 [2] was “+++ (>300)”. Also, the “Cellular activity @5 uM” value at HDAC6 [2] was “+++ (>300)”.
